Reference: ChEMBL document CHEMBL3580650, “Synthesis and Initial in Vivo Studies with [(11)C]SB-216763: The First Radiolabeled Brain Penetrative Inhibitor of GSK-3” (ACS Med Chem Lett, 2015)

Legend:
[1] = Drug uptake in cerebellum of rhesus monkey brain at 89 +/- 3 MBq, iv administered as bolus dose for 1 min measured over 90 mins post injection by MicroPET image analysis; assay type: ADME, organism-based, Macaca mulatta; details: in vivo
Cortex = test: Drug uptake in cortex of Wistar rat brain at 48.8 MBq, iv administered as bolus dose for 30 secs measured over 120 mins post injection by MicroPET image analysis; assay type: ADME, organism-based; details: in vivo
Brain [2] = test: Drug uptake in brain of rhesus monkey at 89 +/- 3 MBq, iv administered as bolus dose for 1 min measured at 5 mins post wash out by MicroPET image analysis; assay type: ADME, organism-based, Macaca mulatta; details: in vivo
Brain [3] = test: Drug uptake in brain of Wistar rat at 48.8 MBq, iv administered as bolus dose for 30 secs measured at 3 mins post wash out by MicroPET image analysis; assay type: ADME, organism-based; details: in vivo, 0.05 h
Striatum [4] = test: Drug uptake in striatum of rhesus monkey brain at 89 +/- 3 MBq, iv administered as bolus dose for 1 min measured over 90 mins post injection by MicroPET image analysis; assay type: ADME, organism-based, Macaca mulatta; details: in vivo
[5] = Drug uptake in thalamus of rhesus monkey brain at 89 +/- 3 MBq, iv administered as bolus dose for 1 min measured over 90 mins post injection by MicroPET image analysis; assay type: ADME, organism-based, Macaca mulatta; details: in vivo
Cerebellum = test: Drug uptake in cerebellum of Wistar rat brain at 48.8 MBq, iv administered as bolus dose for 30 secs measured over 120 mins post injection by MicroPET image analysis; assay type: ADME, organism-based; details: in vivo
Striatum [6] = test: Drug uptake in striatum of Wistar rat brain at 48.8 MBq, iv administered as bolus dose for 30 secs measured over 120 mins post injection by MicroPET image analysis; assay type: ADME, organism-based; details: in vivo
[7] = Drug uptake in cortex of rhesus monkey brain at 89 +/- 3 MBq, iv administered as bolus dose for 1 min measured over 90 mins post injection by MicroPET image analysis; assay type: ADME, organism-based, Macaca mulatta; details: in vivo
Thalamus = test: Drug uptake in thalamus of Wistar rat brain at 48.8 MBq, iv administered as bolus dose for 30 secs measured over 120 mins post injection by MicroPET image analysis; assay type: ADME, organism-based; details: in vivo

- Drug uptake [1]: Active
- Drug uptake (Cortex): Active
- SUV (Brain [2]): 1.9
- SUV (Brain [3]): 2.5
- Drug uptake (Striatum [4]): Active
- Drug uptake [5]: Active
- Drug uptake (Cerebellum): Active
- Drug uptake (Striatum [6]): Active
- Drug uptake [7]: Active
- Drug uptake (Thalamus): Active
SMILES: [11CH3]n1cc(C2=C(c3ccc(Cl)cc3Cl)C(=O)NC2=O)c2ccccc21
